Assay results: a melting point compilation (Tetko et al.)

| SMILES | melting point [°C] |
| --- | --- |
| Cc1c(C(=O)O)cnn1C1CCS(=O)(=O)C1 (configuration not stated) | 249 to 251 |
| COC(=O)c1ccc(-c2nc(C)cs2)cc1 | 81 to 83 |
| O=C(O)c1cc2c(=O)n3ccccc3nc2n1Cc1ccccc1 | 257 to 259 |
| COc1ccc(-c2cc3ncnc(Cl)c3s2)cc1 | 179 to 181 |
| CCOC(=O)Cc1nc(-c2ccc(OC)c(OC)c2)no1 | 75 to 77 |
| COC(=O)/C=C/c1cc(OC)c(OC)c(S(=O)(=O)Cl)c1 | 160 to 162 |
| Oc1ccc(CNCc2ccco2)cc1 | 107 to 109 |
| O=S(=O)(CCN1CCCC(O)C1)c1ccc(Br)cc1 (configuration not stated) | 182 to 184 |
| Cc1nc(-c2ccc(N)cc2)cc(=O)[nH]1 | 259 to 261 |
| O=Cc1cnc(N2CCOCC2)s1 | 163 to 165 |
| O=C(O)Cc1csc(-c2ccc(Br)s2)n1 | 142 to 144 |
| ClCc1cn(-c2ccc(Cl)cc2)nn1 | 139 to 141 |
| O=C(O)C1(c2cccc(Cl)c2)CCCC1 | 150 to 152 |
| CCOC(=O)c1sc2ccsc2c1CBr | 98 to 100 |
| O=[N+]([O-])c1ccc2oc(S)nc2c1 | 241 to 243 |
| O=C(O)C1CCN(S(=O)(=O)c2ccc3ccccc3c2)CC1 | 180 to 182 |
| CS(=O)(=O)c1ccc(OCCN)cc1 | 63 to 65 |
| CCCCNc1c(N)n(CCC)c(=O)[nH]c1=O | 201 to 203 |
| CC(O)C(=O)Nc1ccccc1 (configuration not stated) | 52 to 54 |

| SMILES | melting point [°C] |
| --- | --- |
| O=C1NC(=O)C2(CCc3cc(Cl)ccc32)N1 (configuration not stated) | 252 to 254 |
| Sc1nnc(COc2ccccc2Cl)o1 | 135 to 137 |
| CC(C)(C)OC(=O)NC1(C(=O)O)Cc2ccccc2C1 | 162 to 164 |
| Cc1cc(Cl)c(CO)c(Cl)n1 | 81 to 83 |
| O=[N+]([O-])c1ccc(F)c([N+](=O)[O-])c1F | 37 to 39 |
| CS(=O)(=O)CCC(Cc1cccc(Br)c1)C(=O)O (configuration not stated) | 61 to 63 |
| CCC1CCC2(CC1)NC(=O)NC2=O (configuration not stated) | 230 to 232 |
| Cc1ccc2c(c1)CCC2=O | 69 to 73 |
| O=C(O)C1SCCc2sccc21 (configuration not stated) | 148 to 150 |
| Cn1ccnc(N)c1=O | 162 to 164 |
| CN(C)CCCNC(N)=S | 66 to 68 |
| O=C(O)CSc1nnnn1CC(F)(F)F | 135 to 137 |
| CCOC(=O)/C=C1/SCC(=O)N1Cc1cc(C(C)=O)ccc1OCC | 175 to 177 |
| Nc1cc(Cl)ccc1Sc1ccccc1 | 62 to 64 |
| NC(=O)C1CCC1 | 151 to 153 |
| Cc1cn(-c2cccnc2)nc1N | 135 to 137 |
| CC(CSc1ccccc1)C(=O)O (configuration not stated) | 40 to 42 |
| Brc1ccccc1Cc1nn[nH]n1 | 135 to 137 |
| Nc1nnc(Cc2ccc(F)cc2)o1 | 169 to 171 |

| SMILES | melting point [°C] |
| --- | --- |
| COC(=O)c1cccc(-c2nn[nH]n2)c1 | 189 to 191 |
| Nc1ccc2c(c1)N1CCN=C1S2 | 201 to 204 |
| COCCN(C(=O)CCl)c1c(N)n(CC(C)C)c(=O)[nH]c1=O | 204 to 206 |
| CNC(=O)COc1cccc(O)c1 | 123 to 125 |
| O=C(O)c1noc(-c2cccc(F)c2)n1 | 120 to 122 |
| O=C(O)C1CCCn2c1n[nH]c2=O (configuration not stated) | 121 to 123 |
| COC(=O)c1sccc1O | 49 to 51 |
| CCOC(=O)c1c(-c2ccccc2)oc2ccc(O)cc12 | 152 to 154 |
| CS(=O)(=O)Nc1cccc(C#N)c1 | 154 to 156 |
| CC(=O)CCCOc1ccccc1C(N)=O | 80 to 82 |
| CCCS(=O)(=O)Nc1cccc(N)c1 | 63 to 65 |
| O=C(O)c1cc(-c2ccncc2)nc2ccc(Br)cc12 | 340 to 342 |
| O=S(=O)(Nc1cccc(O)c1)c1ccccc1 | 127 to 129 |
| O=C1CCNc2ccc(C(=O)O)cc2N1 | 281 to 283 |
| O=C(NC1CC1)c1cccc(O)c1 | 157 to 159 |
| Cn1cc(C=O)c(-c2ccccc2)n1 | 59 to 61 |
| Nc1cc(-c2ccc(F)cc2F)on1 | 122 to 124 |
| O=C(O)c1ccc(OCc2cscn2)cc1 | 191 to 193 |
| Cc1cccc(-n2nnnc2S)c1C | 115 to 117 |
